Patent US9855270B2, “Methods and compositions for modulating estrogen receptor mutants” (priority 2014, dated 2018)
Like-named read-outs stand apart in the source and are kept apart here.

What was measured:
[1] = test system: MCF-7 cells transduced with an empty EF1 lentiviral vector (negative control); assay: MCF-7 Stable Cell Line Viability (EF1 HA-ER-α series); type: cell-based; set-up: Percent inhibition compared to vehicle: concentration or dose not given beside the values; conditions: for Efficacy (Emax): Day 5 relative to Day 0; for EC50: read-out: Potency (EC50; nM); for Percent inhibition compared to vehicle: 5-Day Incubation
Excerpt: (§1) MCF-7 Mutant ER-α Stable Cell Line Generation: MCF-7 cells stably expressing wild-type or ER-α mutants were generated by subcloning ESR1 wild-type and mutant cDNAs containing an amino terminal hemagglutinin tag into pCDH-EF1-MCS-(PGK-Puro) (referred to as EF1 HA-ER-α) and pCDH-UbC-MCS-EF1-Hygro (referred to as UbC HA-ER-α) (System Biosciences). The resulting plasmids, in addition to an empty vector negative control, were subsequently cotransfected into HEK293T cells with the pPACKH1 packaging plasmid mix (System Biosciences) according to the manufacturer's protocol. Four days post transfection lentiviral particles were purified from the cell medium, tiered and stored at −80° C. MCF-7 cells were transduced with the purified viral particles and stable cell lines were selected by growth in RPMI containing 10% FBS plus 1 μG/mL puromycin or 200 μG/mL hygromycin for pCDH-EF1-MCS-(PGK-Puro) and pCDH-UbC-MCS-EF1-Hygro, respectively.
(§2) MCF-7 Stable Cell Line Viability: MCF-7 cells were enumerated with a hemacytometer adjusted to a concentration of 40,000 cells per mL in Phenol Free RPMI containing 10% CSS with NEAA and Sodium Pyruvate. 16 microliters of the cell suspension was added to each well of a 384 well tissue culture treated white clear bottom polystyrene plate (Corning) using a Matrix 16 channel electronic pipette. The cells were incubated overnight to allow the cells to adhere. The following day, 16 microliters of Phenol Free RPMI containing 10% CSS with NEAA and Sodium Pyruvate was added to the wells of one plate, followed by 16 μL of CellTiter-Glo (Promega, Madison Wis.) luminescent cell viability reagent using a Matrix 16 channel electronic pipette. […] The “average” of the relative luminescence units (RLUs) of the wells are considered to be the baseline value at time=zero. In addition, a 10 point, 1:5 serial dilution in DMSO (Sigma-Aldrich) was performed using Matrix 12 channel electronic pipette, including DMSO only as […]. 4 μL of each dilution was then added to 196 μL of RPMI containing 10% CSS with NEAA and Sodium Pyruvate. 16 μL of medium containing compound was added to the cells at a final concentration ranging from 10 μM to 5 pM. Compound dilution in media and subsequent addition to cells were carried out using Matrix 12 channel electronic pipettes. After 5 day compound exposure, 16 μL of CellTiter-Glo (Promega, Madison Wis.) luminescent cell viability reagent was added to the cells using a Matrix 16 channel electronic pipette. CellTiter-Glo added to 32 μL of medium without cells was used to obtain a background value. […] The relative luminescence units (RLUs) of each well were measured, and relative proliferation (fold) of each sample was determined as follows: (RLU sample−RLU background)/(RLU at T=0)=relative proliferation
(§3) The UbC promoter is reported by the manufacturer (System Biosciences) to express low to moderate RNA levels while the EF1 promoter expresses high levels (System Biosciences).

[2] = test system: MCF-7 cells stably expressing EF1 HA-ER-α wild-type; assay: as above; type: cell-based; set-up: Percent inhibition compared to vehicle: concentration or dose not given beside the values; conditions: for Percent inhibition compared to vehicle: 5-Day Incubation; for Efficacy (Emax): Day 5 relative to Day 0; for EC50: read-out: Potency (EC50; nM)
Excerpt: as §1, §2, §3

[3] = test system: MCF-7 cells stably expressing ER-α mutants
Description: Potency and efficacy of ERM 1-3 were measured in vitro in ER dependent transcriptional reporter assays and viability assays of MCF-7 cells stably expressing ER-α mutants.
as §1
MCF-7 Stable Cell Line Viability: MCF-7 cells were enumerated with a hemacytometer adjusted to a concentration of 40,000 cells per mL in Phenol Free RPMI containing 10% CSS with NEAA and Sodium Pyruvate. 16 microliters of the cell suspension was added to each well of a 384 well tissue culture treated white clear bottom polystyrene plate (Corning) using a Matrix 16 channel electronic pipette. The cells were incubated overnight to allow the cells to adhere. […] The “average” of the relative luminescence units (RLUs) of the wells are considered to be the baseline value at time=zero. […] The relative luminescence units (RLUs) of each well were measured, and relative proliferation (fold) of each sample was determined as follows: (RLU sample−RLU background)/(RLU at T=0)=relative proliferation
Potency and efficacy of ERM 4-23 were measured in vitro in ER dependent transcriptional reporter assays and viability assays of MCF-7 cells stably expressing ER-α mutants.

[4] = test system: UbC HA-ER-α mutant cell lines (MCF-7)
Excerpt: as §1, with “MCF-7 cells were transduced with the purified viral particles and stable cell lines were selected by growth in RPMI containing 10% FBS plus 1 μG/mL puromycin or 200 μG/mL hygromycin for pCDH-EF1-MCS-(PGK-Puro) and pCDH-UbC-MCS-EF1-Hygro, respectively.” left out
MCF-7 Stable Cell Line Viability: MCF-7 cells were enumerated with a hemacytometer adjusted to a concentration of 40,000 cells per mL in Phenol Free RPMI containing 10% CSS with NEAA and Sodium Pyruvate. […] The “average” of the relative luminescence units (RLUs) of the wells are considered to be the baseline value at time=zero. […] The relative luminescence units (RLUs) of each well were measured, and relative proliferation (fold) of each sample was determined as follows: (RLU sample−RLU background)/(RLU at T=0)=relative proliferation […]

[5] = test system: MCF-7 cells stably expressing UbC HA-ER-α E380Q; assay: cells; type: cell-based; set-up: Percent inhibition compared to vehicle: concentration or dose not given beside the values; conditions: for Percent inhibition compared to vehicle: 5-Day Incubation; for EC50: read-out: Potency (EC50; nM); for Efficacy (Emax): Day 5 relative to Day 0
In short: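 Stable HA-ER-α MCF-7 lines are treated with compound for 5 days in phenol-free, charcoal-stripped medium. Viability is measured by CellTiter-Glo and expressed relative to the time-zero plate.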

[6] = test system: MCF-7 cells stably expressing EF1 HA-ER-α E380Q; assay: cells; type: cell-based; set-up: Percent inhibition compared to vehicle: concentration or dose not given beside the values; conditions: for Percent inhibition compared to vehicle: 5-Day Incubation; for Efficacy (Emax): Day 5 relative to Day 0; for EC50: read-out: Potency (EC50; nM)
In short: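 MCF-7 lines stably expressing N-terminal HA-tagged wild-type or mutant ER-α, under a high-expressing EF1 or a low-to-moderate UbC promoter, plus an empty-vector control, grown in phenol-free RPMI with 10% CSS. Compound given at 10 μM to 5 pM final for 5 days. CellTiter-Glo luminescence minus background, divided by the time-zero reading, gave relative proliferation.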

[7] = Receptor None (empty EF1 lentiviral vector), Agonist Mode, −E2
[8] = Receptor None (empty EF1 lentiviral vector), Antagonist Mode, +E2
[9] = EF1 HA-ER-α Wild-type, Agonist Mode, −E2
[10] = EF1 HA-ER-α Wild-type, Antagonist Mode, +E2
[11] = UbC HA-ER-α E380Q, Agonist Mode, −E2
[12] = UbC HA-ER-α E380Q, Antagonist Mode, +E2
[13] = EF1 HA-ER-α E380Q, Agonist Mode, −E2
[14] = EF1 HA-ER-α E380Q, Antagonist Mode, +E2

Row | Compound | Efficacy (Emax) [1, 7] | Percent inhibition compared to vehicle [1, 8] [%] | Efficacy (Emax) [1, 8] | Percent inhibition compared to vehicle [2, 9] [%] | Efficacy (Emax) [2, 9] | Percent inhibition compared to vehicle [2, 10] [%] | Efficacy (Emax) [2, 10] | Percent inhibition compared to vehicle [5, 11] [%] | Percent inhibition compared to vehicle [5, 12] [%] | Percent inhibition compared to vehicle [6, 13] [%] | Efficacy (Emax) [6, 13] | Percent inhibition compared to vehicle [6, 14] [%] | Efficacy (Emax) [6, 14] | other results
1 | CCC(=C(c1ccc(O)cc1)c1ccc(OCCN(C)C)cc1)c1ccccc1 [4-Hydroxytamoxifen] | 1.49 ± 0.06 | 60 | 1.60 ± 0.08 | 30 | 3.99 ± 0.38 | 40 | 4.05 ± 0.36 | 44 | 66 | 21 | 5.17 ± 0.26 | 19 | 5.03 ± 0.85 | EC50 [1, 7]: 0.531 ± 0.381 nM; EC50 [1, 8]: 2.32 ± 0.599 nM; EC50 ([1]; Receptor None (empty EF1 lentiviral vector), Antagonist Mode, −E2 (Table 27)): 0.531 ± 0.381 nM; EC50 [2, 9]: 0.186 ± 0.04 nM; EC50 [2, 10]: 5.16 ± 0.137 nM; EC50 ([2]; EF1 HA-ER-α Wild-type, Antagonist Mode, −E2 (Table 27)): 0.186 ± 0.04 nM; efficacy compared with fulvestrant and ERM 4-23 (in words) ([3]; UbC and EF1-derived lines, agonist mode): reduced efficacy on all the mutations tested; efficacy compared with fulvestrant and ARN-810 (in words) ([4]; UbC promoter based cell lines): reduced efficacy on all the mutations tested; EC50 [5, 11]: 1.59 ± 0.681 nM; EC50 [5, 12]: 4.92 ± 0.671 nM; EC50 [6, 13]: 26 ± 9.12 nM; EC50 [6, 14]: 65.4 ± 24.4 nM; EC50 ([6]; EF1 HA-ER-α E380Q, Antagonist Mode, −E2 (Table 27)): 26 ± 9.12 nM
2 | CC/C(=C(/c1ccc(/C=C/C(=O)O)cc1)c1ccc2[nH]ncc2c1)c1ccc(F)cc1Cl [Compound 1-3, (E)-3-(4-((E)-2-(2-chloro-4-fluorophenyl)-1-(1H-indazol-5-yl)but-1-en-1-yl)phenyl)acrylic acid] | 1.03 ± 0.14 | 75 | 1.01 ± 0.12 | 48 | 2.97 ± 0.50 | 59 | 2.78 ± 0.26 | 59 | 76 | 49 | 3.35 ± 0.07 | 52 | 3.00 ± 0.18 | EC50 ([1]; Homo sapiens, MCF7, Receptor None (empty EF1 lentiviral vector), Agonist Mode, −E2): 0.828 ± 0.347 nM; EC50 ([1]; Homo sapiens, MCF7, Receptor None (empty EF1 lentiviral vector), Antagonist Mode, +E2): 9.27 ± 3.93 nM; Percent inhibition compared to vehicle [1, 7]: 54%; EC50 ([2]; Homo sapiens, MCF7, EF1 HA-ER-α Wild-type, Agonist Mode, −E2): 2.84 ± 1.36 nM; EC50 ([2]; Homo sapiens, MCF7, EF1 HA-ER-α Wild-type, Antagonist Mode, +E2): 28 ± 10.3 nM; reduced the number of viable cells (compared to DMSO control) ([3]; 5 day proliferation assays, depending on the mutation and assay format): 44%-78%; reduced the number of viable cells compared to DMSO controls ([4]; ER-α mutants expressed at low levels via the UBC promoter): 47%-78%; EC50 ([5]; Homo sapiens, MCF7, UbC HA-ER-α E380Q, Agonist Mode, −E2): 1.3 ± 0.232 nM; EC50 ([5]; Homo sapiens, MCF7, UbC HA-ER-α E380Q, Antagonist Mode, +E2): 8.38 ± 3.31 nM; Efficacy (Emax) [5, 11]: 1.74 ± 0.24; Efficacy (Emax) [5, 12]: 1.72 ± 0.38; EC50 ([6]; Homo sapiens, MCF7, EF1 HA-ER-α E380Q, Agonist Mode, −E2): 18.6 ± 7.11 nM; EC50 ([6]; Homo sapiens, MCF7, EF1 HA-ER-α E380Q, Antagonist Mode, +E2): 76.2 ± 21.5 nM
